Test results reported in PubChem BioAssay (NCI).
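Dose response: 5 concentrations. Exposure: 48 h. Format: 96-well plates. Endpoint: linear interpolation; highest concentration if not reached. At the TGI there is no net growth.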

Tests used:
Assay in all cases: NCI-60 cell line screen, 48 h
786-0 renal = tested on: 786-0 renal
A498 renal = tested on: A498 renal
A549 NSCLC = tested on: A549 NSCLC
ACHN renal = tested on: ACHN renal
BT-549 breast = tested on: BT-549 breast
CAKI-1 renal = tested on: CAKI-1 renal
CCRF-CEM leukemia = tested on: CCRF-CEM leukemia
COLO 205 colon = tested on: COLO 205 colon
DU-145 prostate = tested on: DU-145 prostate
EKVX NSCLC = tested on: EKVX NSCLC
HCC-2998 colon = tested on: HCC-2998 colon
HCT-116 colon = tested on: HCT-116 colon
HCT-15 colon = tested on: HCT-15 colon
HL-60(TB) leukemia = tested on: HL-60(TB) leukemia
HOP-62 NSCLC = tested on: HOP-62 NSCLC
HOP-92 NSCLC = tested on: HOP-92 NSCLC
HS 578T breast = tested on: HS 578T breast
HT29 colon = tested on: HT29 colon
IGROV1 ovarian = tested on: IGROV1 ovarian
K-562 leukemia = tested on: K-562 leukemia
KM12 colon = tested on: KM12 colon
LOX IMVI melanoma = tested on: LOX IMVI melanoma
M14 melanoma = tested on: M14 melanoma
MALME-3M melanoma = tested on: MALME-3M melanoma
MCF7 breast = tested on: MCF7 breast
MDA-MB-231 breast = tested on: MDA-MB-231 breast
MDA-MB-435 = tested on: MDA-MB-435
MDA-N = tested on: MDA-N
MOLT-4 leukemia = tested on: MOLT-4 leukemia
NCI-H226 lung = tested on: NCI-H226 lung
NCI-H23 lung = tested on: NCI-H23 lung
NCI-H460 lung = tested on: NCI-H460 lung
NCI-H522 lung = tested on: NCI-H522 lung
NCI/ADR-RES ovarian = tested on: NCI/ADR-RES ovarian
OVCAR-3 ovarian = tested on: OVCAR-3 ovarian
OVCAR-4 ovarian = tested on: OVCAR-4 ovarian
OVCAR-5 ovarian = tested on: OVCAR-5 ovarian
OVCAR-8 ovarian = tested on: OVCAR-8 ovarian
PC-3 prostate = tested on: PC-3 prostate
RPMI-8226 leukemia = tested on: RPMI-8226 leukemia
RXF 393 renal = tested on: RXF 393 renal
SF-268 CNS = tested on: SF-268 CNS
SF-295 CNS = tested on: SF-295 CNS
SF-539 CNS = tested on: SF-539 CNS
SK-MEL-2 melanoma = tested on: SK-MEL-2 melanoma
SK-MEL-28 melanoma = tested on: SK-MEL-28 melanoma
SK-MEL-5 melanoma = tested on: SK-MEL-5 melanoma
SK-OV-3 ovarian = tested on: SK-OV-3 ovarian
SN12C renal = tested on: SN12C renal
SNB-19 CNS = tested on: SNB-19 CNS
SNB-75 CNS = tested on: SNB-75 CNS
SR leukemia = tested on: SR leukemia
SW-620 colon = tested on: SW-620 colon
T-47D breast = tested on: T-47D breast
TK-10 renal = tested on: TK-10 renal
U251 CNS = tested on: U251 CNS
UACC-257 melanoma = tested on: UACC-257 melanoma
UACC-62 melanoma = tested on: UACC-62 melanoma
UO-31 renal = tested on: UO-31 renal

Work on `O=[N+]([O-])O` yielded a TGI (786-0 renal) greater than 100 µM, a TGI (A498 renal) greater than 100 µM and a TGI (A549 NSCLC) greater than 100 µM. It also gave a TGI (ACHN renal) greater than 100 µM, a TGI (BT-549 breast) greater than 100 µM and a TGI (CAKI-1 renal) greater than 100 µM. The TGI (CCRF-CEM leukemia) was greater than 100 µM, the TGI (COLO 205 colon) was greater than 100 µM and the TGI (DU-145 prostate) was greater than 100 µM. The TGI (EKVX NSCLC) was greater than 100 µM, the TGI (HCC-2998 colon) was greater than 100 µM and the TGI (HCT-116 colon) was greater than 100 µM. For the same molecule, the TGI (HCT-15 colon) was greater than 100 µM, the TGI (HL-60(TB) leukemia) was greater than 100 µM and the TGI (HOP-62 NSCLC) was greater than 100 µM. For the same molecule, the TGI (HOP-92 NSCLC) was greater than 100 µM, the TGI (HS 578T breast) was greater than 100 µM and the TGI (HT29 colon) was greater than 100 µM. The TGI (IGROV1 ovarian) was greater than 100 µM, the TGI (K-562 leukemia) was greater than 100 µM and the TGI (KM12 colon) was greater than 100 µM. For the same molecule, the TGI (LOX IMVI melanoma) was greater than 100 µM, the TGI (M14 melanoma) was greater than 100 µM and the TGI (MALME-3M melanoma) was greater than 100 µM. The TGI (MCF7 breast) was greater than 100 µM, the TGI (MDA-MB-231 breast) was greater than 100 µM and the TGI (MDA-MB-435) was greater than 100 µM. It also gave a TGI (MDA-N) greater than 100 µM, a TGI (MOLT-4 leukemia) greater than 100 µM and a TGI (NCI-H226 lung) greater than 100 µM. The TGI (NCI-H23 lung) was greater than 100 µM, the TGI (NCI-H460 lung) was greater than 100 µM and the TGI (NCI-H522 lung) was greater than 100 µM. For the same molecule, the TGI (NCI/ADR-RES ovarian) was greater than 100 µM, the TGI (OVCAR-3 ovarian) was greater than 100 µM and the TGI (OVCAR-4 ovarian) was greater than 100 µM. The TGI (OVCAR-5 ovarian) was greater than 100 µM, the TGI (OVCAR-8 ovarian) was greater than 100 µM and the TGI (PC-3 prostate) was greater than 100 µM. For the same molecule, the TGI (RPMI-8226 leukemia) was greater than 100 µM, the TGI (RXF 393 renal) was greater than 100 µM and the TGI (SF-268 CNS) was greater than 100 µM. For the same molecule, the TGI (SF-295 CNS) was greater than 100 µM, the TGI (SF-539 CNS) was greater than 100 µM and the TGI (SK-MEL-2 melanoma) was greater than 100 µM. It also gave a TGI (SK-MEL-28 melanoma) greater than 100 µM, a TGI (SK-MEL-5 melanoma) greater than 100 µM and a TGI (SK-OV-3 ovarian) greater than 100 µM. The TGI (SN12C renal) was greater than 100 µM, the TGI (SNB-19 CNS) was greater than 100 µM and the TGI (SNB-75 CNS) was greater than 100 µM. For the same molecule, the TGI (SR leukemia) was greater than 100 µM, the TGI (SW-620 colon) was greater than 100 µM and the TGI (T-47D breast) was greater than 100 µM. The TGI (TK-10 renal) was greater than 100 µM, the TGI (U251 CNS) was greater than 100 µM and the TGI (UACC-257 melanoma) was greater than 100 µM. It also gave a TGI (UACC-62 melanoma) greater than 100 µM and a TGI (UO-31 renal) greater than 100 µM.
Work on `C=CN1CCN(c2ccccc2)P1(=O)Oc1ccccc1` (stereo not drawn) yielded a TGI (786-0 renal) greater than 100 µM, a TGI (A498 renal) greater than 100 µM and a TGI (A549 NSCLC) greater than 100 µM. It also gave a TGI (ACHN renal) greater than 100 µM, a TGI (BT-549 breast) greater than 100 µM and a TGI (CAKI-1 renal) greater than 100 µM. It also gave a TGI (CCRF-CEM leukemia) greater than 100 µM, a TGI (COLO 205 colon) greater than 100 µM and a TGI (DU-145 prostate) greater than 100 µM. For the same molecule, the TGI (EKVX NSCLC) was greater than 100 µM, the TGI (HCC-2998 colon) was greater than 100 µM and the TGI (HCT-116 colon) was greater than 100 µM. The TGI (HCT-15 colon) was greater than 100 µM, the TGI (HL-60(TB) leukemia) was greater than 100 µM and the TGI (HOP-62 NSCLC) was greater than 100 µM. For the same molecule, the TGI (HOP-92 NSCLC) was greater than 100 µM, the TGI (HS 578T breast) was greater than 100 µM and the TGI (HT29 colon) was greater than 100 µM. The TGI (IGROV1 ovarian) was greater than 100 µM, the TGI (K-562 leukemia) was greater than 100 µM and the TGI (KM12 colon) was greater than 100 µM. For the same molecule, the TGI (LOX IMVI melanoma) was greater than 100 µM, the TGI (M14 melanoma) was greater than 100 µM and the TGI (MALME-3M melanoma) was greater than 100 µM. It also gave a TGI (MCF7 breast) greater than 100 µM, a TGI (MDA-MB-231 breast) greater than 100 µM and a TGI (MDA-MB-435) greater than 100 µM. It also gave a TGI (MDA-N) greater than 100 µM, a TGI (MOLT-4 leukemia) greater than 100 µM and a TGI (NCI-H226 lung) greater than 100 µM. It also gave a TGI (NCI-H23 lung) greater than 100 µM, a TGI (NCI-H460 lung) greater than 100 µM and a TGI (NCI-H522 lung) greater than 100 µM. For the same molecule, the TGI (NCI/ADR-RES ovarian) was greater than 100 µM, the TGI (OVCAR-3 ovarian) was greater than 100 µM and the TGI (OVCAR-4 ovarian) was greater than 100 µM. It also gave a TGI (OVCAR-5 ovarian) greater than 100 µM, a TGI (OVCAR-8 ovarian) greater than 100 µM and a TGI (PC-3 prostate) greater than 100 µM. It also gave a TGI (RPMI-8226 leukemia) greater than 100 µM, a TGI (RXF 393 renal) greater than 100 µM and a TGI (SF-268 CNS) greater than 100 µM. For the same molecule, the TGI (SF-295 CNS) was greater than 100 µM, the TGI (SF-539 CNS) was greater than 100 µM and the TGI (SK-MEL-2 melanoma) was greater than 100 µM. It also gave a TGI (SK-MEL-28 melanoma) greater than 100 µM, a TGI (SK-MEL-5 melanoma) greater than 100 µM and a TGI (SK-OV-3 ovarian) greater than 100 µM. The TGI (SN12C renal) was greater than 100 µM, the TGI (SNB-19 CNS) was greater than 100 µM and the TGI (SNB-75 CNS) was greater than 100 µM. It also gave a TGI (SR leukemia) greater than 100 µM, a TGI (SW-620 colon) greater than 100 µM and a TGI (T-47D breast) greater than 100 µM. For the same molecule, the TGI (TK-10 renal) was greater than 100 µM, the TGI (U251 CNS) was greater than 100 µM and the TGI (UACC-257 melanoma) was greater than 100 µM. The TGI (UACC-62 melanoma) was greater than 100 µM and the TGI (UO-31 renal) was 92.8 µM.
